Experimental findings from US8748466B2, “Isoxazole derivatives useful as antibacterial agents” (Pfizer Inc., priority 2011, dated 2014) are described below.

In brackets after ≈: the same amount, converted by molar mass. Where two headings read alike, the source gives them in different places. Some results are limits rather than exact numbers.

Assay [1] addresses T1, Pseudomonas aeruginosa LpxC enzyme (Pseudomonas aeruginosa, UniProt P47205).
T1 construct: made in house; host or cells: E. coli
T1 sequence (P47205 1-303): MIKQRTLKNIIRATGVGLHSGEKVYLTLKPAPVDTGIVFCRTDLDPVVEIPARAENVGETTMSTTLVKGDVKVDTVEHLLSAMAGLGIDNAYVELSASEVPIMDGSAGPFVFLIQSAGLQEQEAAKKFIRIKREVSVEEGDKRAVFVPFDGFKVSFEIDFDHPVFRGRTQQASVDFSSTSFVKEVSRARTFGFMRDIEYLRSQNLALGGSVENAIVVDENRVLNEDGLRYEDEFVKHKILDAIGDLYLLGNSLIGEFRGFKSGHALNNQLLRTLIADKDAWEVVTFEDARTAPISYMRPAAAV
Put plainly: LpxC enzyme IC50 assay (PA LpxC enzyme IC50), BioTrove RapidFire mass spectrometry. Type of assay: biochemical. The procedure:
In order to assess the compounds biological activity selected in vitro assays were conducted on selected compounds. One of the assays measured the compounds ability to disrupt the synthesis of lipopolysaccharide, LPS, which is a component of the outer membrane of Gram-negative bacteria. Disruption of this synthesis is lethal to the bacteria. The assay determined the compound's ability to inhibit LpxC, which is the first enzyme in the biosynthetic pathway for LPS (measured as IC50). Additionally, MICs (minimal inhibitory concentrations) were determined for several bacteria. The specific protocols are described below:
A) IC50 Assay LpxC Enzyme from P. aeruginosa Labeled as PA LpxC Enzyme IC50):
At the end of 1 hour, 5 ul of 1 N HCl was added to stop the enzyme reaction, the plates were centrifuged, and then processed with the BioTrove Rapidfire HTMS Mass Spectrometry System. A no-enzyme control was used in calculating the IC50 values from the percent conversion values.

For assay [2], the system named is Escherichia coli EC-1: VOGEL, mouse virulent. As to the kind of experiment: MIC determination (CLSI), EC-1. Particulars: read-out: EC-1 MIC. Type of assay: cell-based. The procedure: (§1) The in vitro antibacterial activity of compounds described in the Examples was evaluated by minimum inhibitory concentration (MIC) testing according to Clinical and Laboratory Standards Institute (CLSI). See: Clinical and Laboratory Standards Institute. Methods for Dilution Antimicrobial Susceptibility Tests for Bacteria that Grow Aerobically; Approved Standard-Eighth Edition. CLSI document M7-A8 [ISBN 1-56238-689-1]. Clinical and Laboratory Standards Institute, 940 West Valley Road, Suite 1400, Wayne, Pa. 19087-1898 USA, 2006; also Clinical and Laboratory Standards Institute. Performance Standards for Antimicrobial Susceptibility Testing; Twentieth Informational Supplement. CLSI document M100-S20 [ISBN1-56238-716-2]. Clinical and Laboratory Standards Institute.
(§2) The MIC determination is a standard laboratory method for evaluating the antibacterial activity of a compound. The MIC represents the lowest drug concentration that inhibits visible growth of bacteria following overnight incubation. […] Typically, the drug concentration range is broken down into 2-fold increments (e.g., 0.06 μg/mL, 0.12 μg/mL. 0.25 μg/mL, 0.50 μg/mL, 1.0 μg/mL, etc.) and the various drug concentrations are all individually incubated overnight with approximately the same number of bacteria. The MIC is then determined by visually inspecting the drug effect at each concentration, and identifying the lowest drug concentration that has inhibited bacterial growth as compared to the drug free control. Typically, bacteria continue to grow at drug concentrations lower than the MIC and don't grow at concentrations at and above the MIC.
(§3) The MIC values described in Tables 4 and 5 below were derived from assays wherein each test compound was evaluated in duplicate. In cases where the duplicate values varied by 0-2-fold, the lower of the two values was reported below. Generally speaking, if the duplicate values varied by more than 2-fold, the assay was considered non-valid and was repeated until the variation between duplicate runs was 2-fold. In line with the CLSI guidelines referred to above, both control organisms and reference compounds were utilized in each MIC assay to provide proper quality control. MIC values generated with these control organisms and reference compounds were required to fall within a defined range for the assay to be considered valid and be included herein. Those skilled in the art will recognize that MIC values can and do vary from experiment to experiment. Generally speaking, it should be recognized that MIC values often vary +/−2-fold from experiment to experiment. While a single MIC is reported for each compound and each microorganism, the reader should not conclude that each compound was only tested once. Several of the compounds were subjected to multiple tests. The data reported in Tables 4 and 5 is reflective of the compound's relative activity and different MICs may have been generated on these occasions in line with the guidelines described above.
(§4) The following bacterial strains were used in these MIC determinations:
2) Escherichia coli EC-1: VOGEL, mouse virulent labeled as EC-1 in Tables 4 and 5;

The test system of assay [3] is Pseudomonas aeruginosa UC12120 (mouse virulent). As to the kind of experiment: MIC determination (CLSI), PA-UC12120. Type of assay: cell-based. Particulars: UC12120, read-out: PA-UC12120 MIC. The protocol: as §1, §2, §3, §4
1) Pseudomonas aeruginosa UC12120 (mouse virulent) labeled as PA-UC12120 in Tables 4 and 5;

Assay [4] relates to Acinetobacter baumannii/haemolyticus: Multidrug-resistant clinical isolate AB-3167. Put plainly: MIC determination (CLSI), AB-3167. Type of assay: cell-based. The following applies: overnight incubation, duplicate, lower of the two values reported. The protocol: as §1, §2, §3, §4
3) Acinetobacter baumannii/haemolyticus: Multidrug-resistant clinical isolate labeled as AB-3167 in Tables 4 and 5;

The mark [5] stands for this setting: P. aeruginosa LpxC enzyme 0.1 nM, 25° C., 1 hour, pH 8.0, read-out: PA:IC50.

In general, IC50 refers to the midpoint of a concentration-inhibition curve. The MIC is the least concentration at which growth counts as inhibited. On to `CC(CCc1cc(-c2ccncc2F)no1)(C(=O)NO)S(C)(=O)=O` (racemic) [Example 37, 4-[3-(3-fluoropyridin-4-yl)isoxazol-5-yl]-N-hydroxy-2-methyl-2-(methylsulfonyl)butanamide], for which the IC50 in assay [1] (setting [5]) was 52.4 nM. Further, the MIC in assay [2] was greater than 64 µg/mL; in assay [3] it was 16 µg/mL (≈ 44.8 µM); in assay [4], greater than 64 µg/mL.

`Cc1ccc(-c2cc(CCC(C)(C(=O)NO)S(C)(=O)=O)on2)cc1` (racemic) [Example 38, N-hydroxy-2-methyl-4-[3-(4-methylphenyl)isoxazol-5-yl]-2-(methylsulfonyl)butanamide] yielded an IC50 in assay [1] of 2.9 nM. In addition, the MIC in assay [2] is 8 µg/mL (≈ 22.7 µM); in assay [3], 1 µg/mL (≈ 2.84 µM); in assay [4] it was greater than 64 µg/mL.

On to `CC(CCc1cc(CCc2ccccc2)no1)(C(=O)NO)S(C)(=O)=O` (racemic) [Example 39, N-hydroxy-2-methyl-2-(methylsulfonyl)-4-[3-(2-phenylethyl)isoxazol-5-yl]butanamide], for which the IC50 in assay [1] (setting [5]) came out at 9.8 nM. Also, the MIC in assay [2] was 32 µg/mL (≈ 87.3 µM); in assay [3] it was 4 µg/mL (≈ 10.9 µM); in assay [4], greater than 64 µg/mL.

As for `CC(CCc1cc(-c2ccc(F)c(F)c2)no1)(C(=O)NO)S(C)(=O)=O` (racemic) [Example 41, 4-[3-(3,4-difluorophenyl)isoxazol-5-yl]-N-hydroxy-2-methyl-2-(methylsulfonyl)butanamide], the IC50 in assay [1] (setting [5]) came out at 6.8 nM. The figures for the MIC in assay [2], in assay [3] and in assay [4] were 16 µg/mL (≈ 42.7 µM), 2 µg/mL (≈ 5.34 µM) and greater than 64 µg/mL, respectively.

Regarding `COc1ccc(-c2cc(CCC(C)(C(=O)NO)S(C)(=O)=O)on2)cc1OC` (racemic) [Example 42, 4-[3-(3,4-dimethoxyphenyl)isoxazol-5-yl]-N-hydroxy-2-methyl-2-(methylsulfonyl)butanamide], the IC50 in assay [1] (setting [5]) came out at 38.6 nM. For the same compound, the values for the MIC in assay [2], in assay [3] and in assay [4] were greater than 64 µg/mL, 64 µg/mL (≈ 161 µM) and greater than 64 µg/mL, respectively.

As for `CC(CCc1cc(-c2ncccc2F)no1)(C(=O)NO)S(C)(=O)=O` (racemic) [Example 43, 4-[3-(3-fluoropyridin-2-yl)isoxazol-5-yl]-N-hydroxy-2-methyl-2-(methylsulfonyl)butanamide], in assay [1] (setting [5]), the IC50 is greater than 100 nM. In addition, the MIC in assay [2] is 64 µg/mL (≈ 179 µM); in assay [3], 32 µg/mL (≈ 89.5 µM); in assay [4], greater than 64 µg/mL.

As for `CC(CCc1cc(-c2ccc(F)cc2)no1)(C(=O)NO)S(C)(=O)=O` (racemic) [Example 44, 4-[3-(4-fluorophenyl)isoxazol-5-yl]-N-hydroxy-2-methyl-2-(methylsulfonyl)butanamide], in assay [1] (setting [5]), the IC50 was 3.8 nM. Also, the values for the MIC in assay [2], in assay [3] and in assay [4] were 16 µg/mL (≈ 44.9 µM), 1 µg/mL (≈ 2.81 µM) and greater than 64 µg/mL, respectively.

`COc1ccc(-c2cc(CCC(C)(C(=O)NO)S(C)(=O)=O)on2)cc1` (racemic) [Example 47, N-hydroxy-4-[3-(4-methoxyphenyl)isoxazol-5-yl]-2-methyl-2-(methylsulfonyl)butanamide]: the concentration for half-maximal inhibition (IC50) in assay [1] (setting [5]) worked out at 4.1 nM. The figures for the MIC in assay [2], in assay [3] and in assay [4] were 16 µg/mL (≈ 43.4 µM), 1 µg/mL (≈ 2.71 µM) and greater than 64 µg/mL, respectively.

As to `CC(CCc1cc(-c2ccc(N3CCOCC3)c(F)c2)no1)(C(=O)NO)S(C)(=O)=O` (racemic) [Example 48, 4-[3-(3-fluoro-4-morpholin-4-ylphenyl)isoxazol-5-yl]-N-hydroxy-2-methyl-2-(methylsulfonyl)butanamide], the IC50 in assay [1] (setting [5]) worked out at 24.2 nM. Also, the values for the MIC in assay [2], in assay [3] and in assay [4] were 32 µg/mL (≈ 72.5 µM), 32 µg/mL (≈ 72.5 µM) and greater than 64 µg/mL, respectively.

For the compound `COc1ccccc1-c1cc(CCC(C)(C(=O)NO)S(C)(=O)=O)on1` (racemic) [Example 49, N-hydroxy-4-[3-(2-methoxyphenyl)isoxazol-5-yl]-2-methyl-2-(methylsulfonyl)butanamide], the IC50 in assay [1] (setting [5]) amounted to 42.4 nM. The MIC is greater than 64 µg/mL in assay [2], 32 µg/mL (≈ 86.9 µM) in assay [3] and greater than 64 µg/mL in assay [4].

`COc1cccc(-c2cc(CC[C@](C)(C(=O)NO)S(C)(=O)=O)on2)c1F` [Example 1, (2R)-4-[3-(2-Fluoro-3-methoxyphenyl)isoxazol-5-yl]-N-hydroxy-2-methyl-2-(methylsulfonyl)butanamide] registered an IC50 in assay [1] of 5.32 nM. Moreover, the MIC was 4 µg/mL (≈ 10.4 µM) in assay [2], 2 µg/mL (≈ 5.18 µM) in assay [3] and greater than 64 µg/mL in assay [4].

Take `COc1ccc(-c2cc(CC[C@](C)(C(=O)NO)S(C)(=O)=O)on2)c(F)c1` [Example 3, (2R)-4-[3-(2-fluoro-4-methoxyphenyl)isoxazol-5-yl]-N-hydroxy-2-methyl-2-(methylsulfonyl)butanamide]: the IC50 in assay [1] was found to be 4.4 nM. Besides, the values for the MIC in assay [2], in assay [3] and in assay [4] were 4 µg/mL (≈ 10.4 µM), 0.5 µg/mL (≈ 1.29 µM) and greater than 64 µg/mL, respectively.

Regarding `C[C@@](CCc1cc(-c2ccccc2)no1)(C(=O)NO)S(C)(=O)=O` [Example 4, (2R)-N-hydroxy-2-methyl-2-(methylsulfonyl)-4-(3-phenylisoxazol-5-yl)butanamide], the IC50 in assay [1] (setting [5]) worked out at 5.78 nM. Besides, the minimal inhibitory concentration (MIC) in assay [2] was 4 µg/mL (≈ 11.8 µM); in assay [3], 0.25 µg/mL (≈ 0.739 µM); in assay [4], greater than 64 µg/mL.

`C[C@@](CCc1cc(-c2ccccc2)on1)(C(=O)NO)S(C)(=O)=O` [Example 6, (2R)-N-hydroxy-2-methyl-2-(methylsulfonyl)-4-(5-phenylisoxazol-3-yl)butanamide] showed an IC50 in assay [1] of 0.51 nM. The MIC was 8 µg/mL (≈ 23.6 µM) in assay [2], 0.25 µg/mL (≈ 0.739 µM) in assay [3] and greater than 64 µg/mL in assay [4].
